Experimental data reported in patent US20090221559A1 (priority 2005, published 2009).
Where two headings read alike, the source gives them in different places.

Legend:
[1] = target: T1, HCV NS5B polymerase (His-tagged, C-terminal 21 amino acid deleted NS5B, HC-J4) (Hepatitis C virus genotype 1b, UniProt O92972); assay: NS5b polymerase assay (biochemical RdRp assay, 3H-GTP incorporation, SPA beads); set-up: species or system HCV genotype 1b
T1 construct: The cDNA encoding NS5B amino acid 1-570 (HC-J4, genotype 1b); His tag (His6, from pET-21b) (C); made in house; host or cells: E. coli BL21 (DE3)
Outline: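 3H-GTP incorporation into newly made RNA was captured on SPA beads added in EDTA after 2 h at 25 °C. Compounds in DMSO met preformed enzyme–template complex (200 nM truncated His-NS5B, HC-J4 1b; biotin-oligo(rG13)/poly(rC)) for 15 min at RT, then 600 nM GTP, 5 mM MgCl2, Tris pH 7.5 started polymerization.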

[2] = tested on: HCV replicon RNA replication in Huh-7 luc/neo (Huh-Luc) cells; assay: HCV replicon assay (stable replicon cell reporter assay, luciferase read-out); format: cell-based, HCV type 1b
Outline: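 Three-day compound exposure used Huh-Luc cells, which harbour an autonomously replicating genotype 1b NS3-NS5B replicon expressing luciferase and neo^R. Luciferase signal served as the replication read-out, and dose-response curves came from several concentrations per compound.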

[3] = NS5B Polymerase Assay IC50, 200 nM enzyme, 3H-GTP incorporation, 2 h at 25° C.
[4] = Hepatitis C virus, Huh-7, 72 h, read-out: Replicon Assay EC50, Huh-Luc cells, three days incubation, luciferase activity
[5] = NS5B Polymerase Assay IC50 (μM)
[6] = Hepatitis C virus, Huh-7, 72 h, read-out: Replicon Assay EC50 (μM), Huh-Luc cells, incubation of three days, luciferase activity

T1 sequence (O92972 2417-3000, looked up, stated change not applied): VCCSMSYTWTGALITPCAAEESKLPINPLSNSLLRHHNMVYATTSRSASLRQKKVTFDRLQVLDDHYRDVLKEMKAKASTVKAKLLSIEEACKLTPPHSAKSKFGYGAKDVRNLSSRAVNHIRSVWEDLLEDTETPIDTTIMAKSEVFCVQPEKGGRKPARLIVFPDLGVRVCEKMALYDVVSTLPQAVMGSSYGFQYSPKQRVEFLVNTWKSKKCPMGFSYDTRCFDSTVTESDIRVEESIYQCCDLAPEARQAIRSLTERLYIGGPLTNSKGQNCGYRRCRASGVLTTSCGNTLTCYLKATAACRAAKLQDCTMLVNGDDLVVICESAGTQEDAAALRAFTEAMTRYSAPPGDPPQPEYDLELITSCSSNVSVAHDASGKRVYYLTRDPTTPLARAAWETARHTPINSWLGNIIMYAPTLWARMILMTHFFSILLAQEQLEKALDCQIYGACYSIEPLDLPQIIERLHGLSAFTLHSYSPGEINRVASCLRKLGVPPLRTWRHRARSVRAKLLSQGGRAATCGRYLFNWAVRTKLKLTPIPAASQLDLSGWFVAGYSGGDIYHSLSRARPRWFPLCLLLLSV

| SMILES | melting point | IC50 [1, 3] | EC50 [2, 4] | IC50 [1, 5] | EC50 [2, 6] | EC50 ([2]; read-out: Replicon Assay EC50, Huh-Luc cells, three days incubation, luciferase activity) |
| --- | --- | --- | --- | --- | --- | --- |
| CC(=O)N1c2cccc(C)c2NC2=C(C(=O)CC(C)(C)C2)C1c1ccc(Cl)cc1Cl (stereo not drawn) [compound 315] | > 260 °C | 4.78 µM | 14.6 µM |  |  |  |
| CC(=O)N1c2ccccc2NC2=C(C(=O)CC(C)(C)C2)C1c1ccc(C(F)(F)F)cc1 (stereo not drawn) [compound 120] | > 250 °C | > 133 µM | 31.8 µM |  |  |  |
| CC1(C)CC(=O)C2=C(C1)Nc1ccccc1N(C(=O)c1ccccc1)C2c1ccc(Cl)cc1Cl (stereo not drawn) [compound 45] | > 250 °C | 4.83 µM | 6.79 µM |  |  |  |
| CN(C)c1ccc(NC(=O)N2c3ccccc3NC3=C(C(=O)CC(C)(C)C3)C2c2ccc(Cl)cc2Cl)cc1 (stereo not drawn) [compound 157] | 238 °C | 29.5 µM | 1.95 µM |  |  |  |
| CC1(C)CC(=O)C2=C(C1)Nc1ccccc1N(C(=O)CCc1ccccc1)C2c1ccc(Cl)cc1Cl (stereo not drawn) [compound 152] | 242 °C | 24.1 µM | 2.5 µM |  |  |  |
| CC(=O)N1c2c(Br)cccc2NC2=C(C(=O)CC(C)(C)C2)C1c1ccc(Cl)cc1Cl (stereo not drawn) [compound 311] | > 260 °C | 13.3 µM | 4.03 µM |  |  |  |
| CC(C)NC(=O)N1c2ccccc2NC2=C(C(=O)CC(C)(C)C2)C1c1ccc(Cl)cc1Cl (stereo not drawn) [compound 156] | > 260 °C | 5.15 µM | 6.69 µM |  |  |  |
| CC(=O)N1c2ccc(C(=O)NCCN3CCOCC3)cc2NC2=C(C(=O)CC(C)(C)C2)C1c1ccc(Cl)cc1Cl (stereo not drawn) [compound 321, 10-acetyl-N-(morpholin-4-ylethyl)-11-(2,4-dichlorophenyl)-3,3-dimethyl-1-oxo-2,3,4,5,10,11-hexahydro-1H-dibenzo[b,e][1,4]diazepine-7-carboxamide] | > 260 °C | > 133 µM | 72.2 µM |  |  |  |
| CC(=O)N1c2ccccc2NC2=C(C(=O)CC(C)(C)C2)C1c1ccc(OCc2ccccc2)c(Cl)c1 (stereo not drawn) [compound 139, 10-acetyl-11-[4-benzyloxy-3-chlorophenyl]-3,3-dimethyl-2,3,4,5,10,11-hexahydro-1H-dibenzo[b,e][1,4]diazepin-1-one] | 197 °C | 1.01 µM | 2.9 µM |  |  |  |
| CC1(C)CC(=O)C2=C(C1)Nc1cccc(C#N)c1NC2c1ccc(Cl)cc1Cl (stereo not drawn) [compound 470] | 225 °C |  |  | 23.3 µM | 16.5 µM |  |
| CC(=O)N1c2ccccc2NC2=C(C(=O)CC(C)(C)C2)C1c1ccc(OCc2ccccc2)c(Cl)c1 (single isomer, unassigned) [compound 304, 10-acetyl-11-[4-benzyloxy-3-chlorophenyl]-3,3-dimethyl-2,3,4,5,10,11-hexahydro-1H-dibenzo[b,e][1,4]diazepin-1-one] | 130 °C | 0.46 µM | 7.59 µM |  |  |  |
| CC1(C)CC(=O)C2=C(C1)Nc1ccccc1N(C(=O)CC#N)C2c1ccc(Cl)cc1Cl (stereo not drawn) [compound 151] | > 260 °C | 1.25 µM | 18.4 µM |  |  |  |
| Cc1cccc2c1NC(c1ccc(Cl)cc1Cl)C1=C(CC(C)(C)CC1=O)N2 (stereo not drawn) [compound 469] | 235 °C |  |  | 32.3 µM | 8.24 µM |  |
| CC1(C)CC(=O)C2=C(C1)Nc1ccccc1N(C(=O)c1ccco1)C2c1ccc(Cl)cc1Cl (stereo not drawn) [compound 153] | > 260 °C | 4.05 µM | 18.6 µM |  |  |  |
| CC1(C)CC(=O)C2=C(C1)Nc1c(N)cccc1NC2c1ccc(Cl)cc1Cl (stereo not drawn) [compound 474] | 248 °C |  |  | 1.72 µM | 34.1 µM |  |
| CC(=O)N1c2ccccc2N(Cc2ccccc2)C2=C(C(=O)CC(C)(C)C2)C1c1ccc(Cl)cc1Cl (stereo not drawn) [compound 323] | 235 °C | 53.8 µM | 1.65 µM |  |  |  |
| CC(=O)N1c2ccccc2NC2=C(C(=O)CC(C)(C)C2)C1c1ccc(Cl)cc1Cl (single isomer, unassigned) [compound 38, 10-Acetyl-11-(2,4-dichlorophenyl)-2,3,4,5,10,11-hexahydro-3,3-dimethyl-1H-dibenzo[b,e][1,4]diazepin-1-one] | > 250 °C | 2.84 µM |  |  |  | 23.8 µM |
| CC1(C)CC(=O)C2=C(C1)Nc1ccccc1N(C(=O)C(F)(F)F)C2c1ccc(Cl)cc1Cl (stereo not drawn) [compound 107] | > 260 °C | > 133 µM | 11.5 µM |  |  |  |
